These compounds were tested against T1, Wee1 kinase domain (Homo sapiens, UniProt P30291) (assay: Wee1 Kinase Biochemical Assay (ADP-Glo)). Conditions: class symbols; 1 nM Wee1 enzyme, 15 uM ATP, 4 hours at 25° C.
T1 construct: Wee1 kinase domain was purchased from Carna (catalog #05-177); purchased Carna 05-177
Method in brief: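 ADP-Glo detection of ADP produced after 4 h at 25° C by 1 nM Wee1 kinase domain on 2 ng/mL poly(Lys,Tyr 4:1) with 15 uM ATP. Buffer: 40 mM Tris-HCl, 20 mM MgCl2, 0.1 mg/mL BSA, 2 mM DTT. Inhibition is relative to DMSO (high) and saturating Wee1 inhibitor (low) controls.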

T1 sequence (P30291 299-569 limits assumed): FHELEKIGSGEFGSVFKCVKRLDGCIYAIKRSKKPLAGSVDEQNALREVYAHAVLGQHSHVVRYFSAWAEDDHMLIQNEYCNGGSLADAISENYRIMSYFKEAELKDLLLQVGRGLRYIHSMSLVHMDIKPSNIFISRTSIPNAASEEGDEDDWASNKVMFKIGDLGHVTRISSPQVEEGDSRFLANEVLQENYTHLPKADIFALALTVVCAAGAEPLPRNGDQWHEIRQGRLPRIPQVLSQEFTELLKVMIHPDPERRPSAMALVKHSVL

`Cc1cc(Nc2ncc3c(n2)N(c2cccc(N4CCCC4=O)n2)[C@H]2CC(C)(C)OC[C@@]32C)ccc1N1C[C@H]2C[C@@H]1CN2C` [Example 659, 1-(6-((4bS,8aS)-4b,7,7-trimethyl-2-((3-methyl-4-((1R,4R)-5-methyl-2,5-diazabicyclo[2.2.1]heptan-2-yl)phenyl)amino)-4b,7,8,8a-tetrahydropyrano[3′,4′:4,5]pyrrolo[2,3-d]pyrimidin-9(5H)-yl)pyridin-2-yl)pyrrolidin-2-one] and `Cc1cc(Nc2ncc3c(n2)N(c2cccc(N4CCOC4=O)n2)[C@H]2CC(C)(C)OC[C@@]32C)ccc1N1C[C@H]2C[C@@H]1CN2C` [Example 661, 3-(6-((4bS,8aS)-4b,7,7-trimethyl-2-((3-methyl-4-((1R,4R)-5-methyl-2,5-diazabicyclo[2.2.1]heptan-2-yl)phenyl)amino)-4b,7,8,8a-tetrahydropyrano[3′,4′:4,5]pyrrolo[2,3-d]pyrimidin-9(5H)-yl)pyridin-2-yl)oxazolidin-2-one] fall in the same range of IC50: 10 to 100 nM for the first, 10 to 100 nM for the second.

`CC1(C)C[C@@H]2N(c3cccc(N4CCCC4=O)n3)c3nc(Nc4ccc(C5CNC5)cc4)ncc3[C@]2(C)CO1` [Example 663, 1-(6-((4bS,8aS)-2-((4-(azetidin-3-yl)phenyl)amino)-4b,7,7-trimethyl-4b,7,8,8a-tetrahydropyrano[3′,4′:4,5]pyrrolo[2,3-d]pyrimidin-9(5H)-yl)pyridin-2-yl)pyrrolidin-2-one] and `CN1CC(c2ccc(Nc3ncc4c(n3)N(c3cccc(N5CCCC5=O)n3)[C@H]3CC(C)(C)OC[C@@]43C)cc2)C1` [Example 697, 1-(6-((4bS,8aS)-4b,7,7-trimethyl-2-((4-(1-methylazetidin-3-yl)phenyl)amino)-4b,7,8,8a-tetrahydropyrano[3′,4′:4,5]pyrrolo[2,3-d]pyrimidin-9(5H)-yl)pyridin-2-yl)pyrrolidin-2-one] fall in the same range of IC50: 10 to 100 nM for the first, 10 to 100 nM for the second.

`CC1(C)C[C@@H]2N(c3cccc(N4CCOC4=O)n3)c3nc(Nc4ccc([C@]5(C)CCNC5)cc4)ncc3[C@]2(C)CO1` [Example 665, 3-(6-((4bS,8aS)-46,7,7-trimethyl-2-((4-((S)-3-methylpyrrolidin-3-yl)phenyl)amino)-4b,7,8,8a-tetrahydropyrano[3′,4′:4,5]pyrrolo[2,3-d]pyrimidin-9(5H)-yl)pyridin-2-yl)oxazolidin-2-one] and `CN1CC[C@@](C)(c2ccc(Nc3ncc4c(n3)N(c3cccc(N5CCOC5=O)n3)[C@H]3CC(C)(C)OC[C@@]43C)cc2)C1` [Example 671, 3-(6-((4bS,8aS)-2-((4-((S)-1,3-dimethylpyrrolidin-3-yl)phenyl)amino)-4b,7,7-trimethyl-4b,7,8,8a-tetrahydropyrano[3′,4′:4,5]pyrrolo[2,3-d]pyrimidin-9(5H)-yl)pyridin-2-yl)oxazolidin-2-one] fall in the same range of IC50: 10 to 100 nM for the first, 10 to 100 nM for the second.

`CC1(C)C[C@@H]2N(c3cccc(N4CCOC4=O)n3)c3nc(Nc4ccc(C5CNC5)cc4)ncc3[C@]2(C)CO1` [Example 667, 3-(6-((4bS,8aS)-2-((4-(azetidin-3-yl)phenyl)amino)-4b,7,7-trimethyl-4b,7,8,8a-tetrahydropyrano[3′,4′:4,5]pyrrolo[2,3-d]pyrimidin-9(5H)-yl)pyridin-2-yl)oxazolidin-2-one] and `CC1(C)C[C@@H]2N(c3cccc(N4CCOC4=O)n3)c3nc(Nc4ccc([C@H]5CNC[C@H]5F)cc4)ncc3[C@]2(C)CO1` [Example 673, 3-(6-((4bS,8aS)-2-((4-((3S,4S)-4-fluoropyrrolidin-3-yl)phenyl)amino)-4b,7,7-trimethyl-4b,7,8,8a-tetrahydropyrano[3′,4′:4,5]pyrrolo[2,3-d]pyrimidin-9(5H)-yl)pyridin-2-yl)oxazolidin-2-one] fall in the same range of IC50: 10 to 100 nM for the first, 10 to 100 nM for the second.

`CN1C[C@H]2C[C@@H]1CN2c1ccc(Nc2ncc3c(n2)N(c2cccc(N4CCOC4=O)n2)[C@H]2CC(C)(C)OC[C@@]32C)cc1F` [Example 669, 3-(6-((4bS,8aS)-2-((3-fluoro-4-((1R,4R)-5-methyl-2,5-diazabicyclo[2.2.1]heptan-2-yl)phenyl)amino)-4b,7,7-trimethyl-4b,7,8,8a-tetrahydropyrano[3′,4′:4,5]pyrrolo[2,3-d]pyrimidin-9(5H)-yl)pyridin-2-yl)oxazolidin-2-one] and `CN1C[C@@H]2C[C@H]1CN2c1ccc(Nc2ncc3c(n2)N(c2cccc(N4CCOC4=O)n2)[C@H]2CC(C)(C)OC[C@@]32C)cc1F` [Example 677, 3-(6-((4bS,8aS)-2-((3-fluoro-4-((1S,4S)-5-methyl-2,5-diazabicyclo[2.2.1]heptan-2-yl)phenyl)amino)-4b,7,7-trimethyl-4b,7,8,8a-tetrahydropyrano[3′,4′:4,5]pyrrolo[2,3-d]pyrimidin-9(5H)-yl)pyridin-2-yl)oxazolidin-2-one] fall in the same range of IC50: 10 to 100 nM for the first, 10 to 100 nM for the second.

`CC1(C)C[C@@H]2N(c3cccc(N4CCOC4=O)n3)c3nc(Nc4ccc([C@@H]5CNC[C@@H]5F)cc4)ncc3[C@]2(C)CO1` [Example 674, 3-(6-((4bS,8aS)-2-((4-((3R,4R)-4-fluoropyrrolidin-3-yl)phenyl)amino)-4b,7,7-trimethyl-4b,7,8,8a-tetrahydropyrano[3′,4′:4,5]pyrrolo[2,3-d]pyrimidin-9(5H)-yl)pyridin-2-yl)oxazolidin-2-one] and `CC1(C)C[C@@H]2N(c3cccc(N4CCOC4=O)n3)c3nc(Nc4ccc([C@@H]5CNCC5(F)F)cc4)ncc3[C@]2(C)CO1` [Example 681, 3-(6-((4bS,8aS)-2-((4-((R)-4,4-difluoropyrrolidin-3-yl)phenyl)amino)-4b,7,7-trimethyl-4b,7,8,8a-tetrahydropyrano[3′,4′:4,5]pyrrolo[2,3-d]pyrimidin-9(5H)-yl)pyridin-2-yl)oxazolidin-2-one] fall in the same range of IC50: 10 to 100 nM for the first, 10 to 100 nM for the second.

`CC1(C)C[C@@H]2N(c3cccc(N4CCOC4=O)n3)c3nc(Nc4ccc([C@H]5CNCC5(F)F)cc4)ncc3[C@]2(C)CO1` [Example 683, 3-(6-((4bS,8aS)-2-((4-((S)-4,4-difluoropyrrolidin-3-yl)phenyl)amino)-4b,7,7-trimethyl-4b,7,8,8a-tetrahydropyrano[3′,4′:4,5]pyrrolo[2,3-d]pyrimidin-9(5H)-yl)pyridin-2-yl)oxazolidin-2-one] and `CN1CC(c2ccc(Nc3ncc4c(n3)N(c3cccc(N5CCOC5=O)n3)[C@H]3CC(C)(C)OC[C@@]43C)cc2)C1` [Example 699, 3-(6-((4bS,8aS)-4b,7,7-trimethyl-2-((4-(1-methylazetidin-3-yl)phenyl)amino)-4b,7,8,8a-tetrahydropyrano[3′,4′:4,5]pyrrolo[2,3-d]pyrimidin-9(5H)-yl)pyridin-2-yl)oxazolidin-2-one] fall in the same range of IC50: 100 to 1000 nM for the first, 100 to 1000 nM for the second.

First: CN1CC[C@H]2CN(c3ccc(Nc4ncc5c(n4)N(c4cccc(N6CCOC6=O)n4)[C@H]4CC(C)(C)OC[C@@]54C)cc3)C[C@H]21 [Example 685, 3-(6-((4bS,8aS)-4b,7,7-trimethyl-2-((4-((3aS,6aS)-1-methylhexahydropyrrolo[3,4-b]pyrrol-5(1H)-yl)phenyl)amino)-4b,7,8,8a-tetrahydropyrano[3′,4′:4,5]pyrrolo[2,3-d]pyrimidin-9(5H)-yl)pyridin-2-yl)oxazolidin-2-one]
Second: CN1CC[C@@H]2CN(c3ccc(Nc4ncc5c(n4)N(c4cccc(N6CCCC6=O)n4)[C@H]4CC(C)(C)OC[C@@]54C)cc3)C[C@@H]21 [Example 687, 1-(6-((4bS,8aS)-4b,7,7-trimethyl-2-((4-((3aR,6aR)-1-methylhexahydropyrrolo[3,4-b]pyrrol-5(1H)-yl)phenyl)amino)-4b,7,8,8a-tetrahydropyrano[3′,4′:4,5]pyrrolo[2,3-d]pyrimidin-9(5H)-yl)pyridin-2-yl)pyrrolidin-2-one]
The IC50 of the first is lower: 10 to 100 nM for the first, 100 to 1000 nM for the second. The first is the more potent here.

First: CN1CC[C@H]2CN(c3ccc(Nc4ncc5c(n4)N(c4cccc(N6CCCC6=O)n4)[C@H]4CC(C)(C)OC[C@@]54C)cc3)C[C@H]21 [Example 689, 1-(6-((4bS,8aS)-4b,7,7-trimethyl-2-((4-((3aS,6aS)-1-methylhexahydropyrrolo[3,4-b]pyrrol-5(1H)-yl)phenyl)amino)-4b,7,8,8a-tetrahydropyrano[3′,4′:4,5]pyrrolo[2,3-d]pyrimidin-9(5H)-yl)pyridin-2-yl)pyrrolidin-2-one]
Second: CN1C[C@@H]2CN(c3ccc(Nc4ncc5c(n4)N(c4cccc(N6CCCC6=O)n4)[C@H]4CC(C)(C)OC[C@@]54C)cc3)C[C@@H]2C1 [Example 695, 1-(6-((4bS,8aS)-4b,7,7-trimethyl-2-((4-((3aR,6aS)-5-methylhexahydropyrrolo[3,4-c]pyrrol-2(1H)-yl)phenyl)amino)-4b,7,8,8a-tetrahydropyrano[3′,4′:4,5]pyrrolo[2,3-d]pyrimidin-9(5H)-yl)pyridin-2-yl)pyrrolidin-2-one]
The IC50 of the first is higher: 100 to 1000 nM for the first, 10 to 100 nM for the second.

`CN1CC2(C1)CN(c1ccc(Nc3ncc4c(n3)N(c3cccc(N5CCCC5=O)n3)[C@H]3CC(C)(C)OC[C@@]43C)cc1)C2` [Example 691, 1-(6-((4bS,8aS)-4b,7,7-trimethyl-2-((4-(6-methyl-2,6-diazaspiro[3.3]heptan-2-yl)phenyl)amino)-4b,7,8,8a-tetrahydropyrano[3′,4′:4,5]pyrrolo[2,3-d]pyrimidin-9(5H)-yl)pyridin-2-yl)pyrrolidin-2-one] and `CN1C[C@@H]2CN(c3ccc(Nc4ncc5c(n4)N(c4cccc(N6CCOC6=O)n4)[C@H]4CC(C)(C)OC[C@@]54C)cc3)C[C@@H]2C1` [Example 693, 3-(6-((4bS,8aS)-46,7,7-trimethyl-2-((4-((3aR,6aS)-5-methylhexahydropyrrolo[3,4-c]pyrrol-2(1H)-yl)phenyl)amino)-4b,7,8,8a-tetrahydropyrano[3′,4′:4,5]pyrrolo[2,3-d]pyrimidin-9(5H)-yl)pyridin-2-yl)oxazolidin-2-one] fall in the same range of IC50: 100 to 1000 nM for the first, 100 to 1000 nM for the second.

`CN1[C@@H]2C[C@H]1CN(c1ccc(Nc3ncc4c(n3)N(c3cccc(N5CCOC5=O)n3)[C@H]3CC(C)(C)OC[C@@]43C)cc1)C2` [Example 701, 3-(6-((4bS,8aS)-4b,7,7-trimethyl-2-((4-((1R,5S)-6-methyl-3,6-diazabicyclo[3.1.1]heptan-3-yl)phenyl)amino)-4b,7,8,8a-tetrahydropyrano[3′,4′:4,5]pyrrolo[2,3-d]pyrimidin-9(5H)-yl)pyridin-2-yl)oxazolidin-2-one] was tested, and the IC50 was 10 to 100 nM.
